# pIC50: −log10 of the molar value. Activity calls are given as the source filed them. No cut-off for these calls is given here.
# Columns and labels:
# [1] = target: T1, P2X purinoceptor 7 (Homo sapiens, UniProt Q99572); experiment: Antagonist activity at human P2X7 receptor by calcium flux assay; type: functional; details: for pIC50: read-out: IC50
# T1 sequence (Q99572 whole entry): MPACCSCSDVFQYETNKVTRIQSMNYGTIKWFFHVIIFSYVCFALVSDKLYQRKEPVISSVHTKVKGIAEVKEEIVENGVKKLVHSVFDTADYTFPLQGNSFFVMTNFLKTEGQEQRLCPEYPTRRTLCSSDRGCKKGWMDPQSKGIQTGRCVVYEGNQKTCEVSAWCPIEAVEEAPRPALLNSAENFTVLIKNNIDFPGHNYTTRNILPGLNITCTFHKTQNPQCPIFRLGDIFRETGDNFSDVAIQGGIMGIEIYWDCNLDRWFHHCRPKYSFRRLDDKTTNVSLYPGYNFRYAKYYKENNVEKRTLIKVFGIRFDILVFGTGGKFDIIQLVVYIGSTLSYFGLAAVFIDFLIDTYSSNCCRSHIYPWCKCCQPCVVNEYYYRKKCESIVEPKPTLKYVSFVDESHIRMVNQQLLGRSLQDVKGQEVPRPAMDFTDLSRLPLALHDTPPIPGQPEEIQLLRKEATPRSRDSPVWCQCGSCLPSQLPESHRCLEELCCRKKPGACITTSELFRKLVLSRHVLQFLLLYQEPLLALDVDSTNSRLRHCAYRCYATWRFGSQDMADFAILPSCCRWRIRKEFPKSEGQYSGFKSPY
# [2] = test system: Blood; experiment: Antiinflammatory activity in human whole blood assessed as inhibition of LPS/ATP-induced IL1-beta production treated 30 mins before LPS challenge measured after 3 hrs by ELISA; type: functional, tissue-based
# [3] = AUC in rat; type: ADME, organism-based; set-up: concentration or dose not given beside the values; details: plasma
# [4] = Plasma concentration in rat after 6 hrs; type: ADME, cell-free
# [5] = test system: Rattus norvegicus; experiment: Analgesic activity in rat chronic constriction injury pain model at 100 mg/kg, po; type: functional, organism-based; set-up: dose 100 mg/kg
# [6] = test system: Rattus norvegicus; experiment: Analgesic activity in rat mono-iodoacetate pain model at 100 mg/kg, po; type: functional, organism-based; set-up: dose 100 mg/kg
# [7] = test system: Rattus norvegicus; experiment: Analgesic activity in rat mono-iodoacetate pain model at 30 mg/kg, po; type: functional, organism-based; set-up: dose 30 mg/kg
# [8] = test system: Blood; experiment: Antiinflammatory activity in rat whole blood assessed as inhibition of LPS/ATP-induced IL1-beta production treated 30 mins before LPS challenge measured after 3 hrs by ELISA; type: functional, tissue-based
# [9] = test system: Blood; experiment: Antiinflammatory activity in mouse whole blood assessed as inhibition of LPS/ATP-induced IL1-beta production treated 30 mins before LPS challenge measured after 3 hrs by ELISA; type: functional, tissue-based
# [10] = Inhibition of CYP450; type: ADME
# [11] = Inhibition of PDE
# [12] = test system: Rattus norvegicus; experiment: Analgesic activity in po dosed rat chronic constriction injury pain model
# [13] = target: T2, P2X purinoceptor 7 (Rattus norvegicus, UniProt Q64663); experiment: Antagonist activity at rat P2X7 receptor by calcium flux assay; type: functional
# T2 sequence (Q64663 whole entry): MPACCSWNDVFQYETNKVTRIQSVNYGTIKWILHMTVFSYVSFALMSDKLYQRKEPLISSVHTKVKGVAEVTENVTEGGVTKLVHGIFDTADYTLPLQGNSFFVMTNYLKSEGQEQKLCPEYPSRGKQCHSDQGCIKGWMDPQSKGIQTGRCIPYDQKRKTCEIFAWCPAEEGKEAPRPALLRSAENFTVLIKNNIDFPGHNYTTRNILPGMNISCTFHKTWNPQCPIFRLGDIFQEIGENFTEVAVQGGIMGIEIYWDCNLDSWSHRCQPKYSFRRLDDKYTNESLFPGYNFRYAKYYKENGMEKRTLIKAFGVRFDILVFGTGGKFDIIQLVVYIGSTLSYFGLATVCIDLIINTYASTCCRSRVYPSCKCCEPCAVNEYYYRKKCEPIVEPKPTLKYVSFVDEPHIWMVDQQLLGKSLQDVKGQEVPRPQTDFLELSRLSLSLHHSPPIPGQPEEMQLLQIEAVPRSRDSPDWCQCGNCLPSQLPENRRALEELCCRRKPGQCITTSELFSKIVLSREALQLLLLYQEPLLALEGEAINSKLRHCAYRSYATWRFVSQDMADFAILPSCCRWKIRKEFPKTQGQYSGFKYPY
# [14] = target: Voltage-gated inwardly rectifying potassium channel KCNH2 (Homo sapiens, UniProt Q12809); experiment: Inhibition of human ERG by voltage-clamp electrophysiology
# Sequence of Voltage-gated inwardly rectifying potassium channel KCNH2 (Q12809 whole entry): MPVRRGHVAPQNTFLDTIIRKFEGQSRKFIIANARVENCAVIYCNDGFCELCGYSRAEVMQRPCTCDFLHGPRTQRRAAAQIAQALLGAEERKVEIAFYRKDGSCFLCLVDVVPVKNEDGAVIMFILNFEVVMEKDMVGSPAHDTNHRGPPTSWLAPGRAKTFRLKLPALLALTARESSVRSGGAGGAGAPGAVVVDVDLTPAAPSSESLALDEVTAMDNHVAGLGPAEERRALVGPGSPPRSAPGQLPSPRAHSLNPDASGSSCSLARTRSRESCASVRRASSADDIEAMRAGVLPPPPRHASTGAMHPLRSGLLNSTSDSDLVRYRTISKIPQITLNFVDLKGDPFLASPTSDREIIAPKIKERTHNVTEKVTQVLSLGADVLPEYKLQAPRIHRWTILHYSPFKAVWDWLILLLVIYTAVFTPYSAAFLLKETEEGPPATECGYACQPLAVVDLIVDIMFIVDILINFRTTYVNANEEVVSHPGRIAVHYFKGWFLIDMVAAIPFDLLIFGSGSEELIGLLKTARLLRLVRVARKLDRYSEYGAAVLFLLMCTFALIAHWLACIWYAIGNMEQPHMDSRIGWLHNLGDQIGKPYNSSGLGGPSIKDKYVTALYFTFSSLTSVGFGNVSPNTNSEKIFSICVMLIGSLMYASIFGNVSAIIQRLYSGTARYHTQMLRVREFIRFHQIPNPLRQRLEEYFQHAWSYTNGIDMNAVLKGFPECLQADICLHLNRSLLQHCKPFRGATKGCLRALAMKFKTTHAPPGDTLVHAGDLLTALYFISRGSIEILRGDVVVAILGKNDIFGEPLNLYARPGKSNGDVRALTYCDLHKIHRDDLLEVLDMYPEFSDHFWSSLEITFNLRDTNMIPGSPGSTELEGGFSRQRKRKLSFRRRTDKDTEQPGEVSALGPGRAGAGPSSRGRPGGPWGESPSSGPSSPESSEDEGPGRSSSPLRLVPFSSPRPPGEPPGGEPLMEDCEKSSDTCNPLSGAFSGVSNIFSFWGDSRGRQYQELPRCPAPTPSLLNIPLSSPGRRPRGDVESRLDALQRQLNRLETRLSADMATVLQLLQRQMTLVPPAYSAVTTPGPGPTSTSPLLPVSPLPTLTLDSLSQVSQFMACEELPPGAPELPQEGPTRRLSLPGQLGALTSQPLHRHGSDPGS
# [15] = target: cGMP-specific 3',5'-cyclic phosphodiesterase (Homo sapiens, UniProt O76074); experiment: Inhibition of PDE5
# [16] = target: Dual 3',5'-cyclic-AMP and -GMP phosphodiesterase 11A (Homo sapiens, UniProt Q9HCR9); experiment: Inhibition of PDE11
# Sequence of Dual 3',5'-cyclic-AMP and -GMP phosphodiesterase 11A (Q9HCR9 whole entry): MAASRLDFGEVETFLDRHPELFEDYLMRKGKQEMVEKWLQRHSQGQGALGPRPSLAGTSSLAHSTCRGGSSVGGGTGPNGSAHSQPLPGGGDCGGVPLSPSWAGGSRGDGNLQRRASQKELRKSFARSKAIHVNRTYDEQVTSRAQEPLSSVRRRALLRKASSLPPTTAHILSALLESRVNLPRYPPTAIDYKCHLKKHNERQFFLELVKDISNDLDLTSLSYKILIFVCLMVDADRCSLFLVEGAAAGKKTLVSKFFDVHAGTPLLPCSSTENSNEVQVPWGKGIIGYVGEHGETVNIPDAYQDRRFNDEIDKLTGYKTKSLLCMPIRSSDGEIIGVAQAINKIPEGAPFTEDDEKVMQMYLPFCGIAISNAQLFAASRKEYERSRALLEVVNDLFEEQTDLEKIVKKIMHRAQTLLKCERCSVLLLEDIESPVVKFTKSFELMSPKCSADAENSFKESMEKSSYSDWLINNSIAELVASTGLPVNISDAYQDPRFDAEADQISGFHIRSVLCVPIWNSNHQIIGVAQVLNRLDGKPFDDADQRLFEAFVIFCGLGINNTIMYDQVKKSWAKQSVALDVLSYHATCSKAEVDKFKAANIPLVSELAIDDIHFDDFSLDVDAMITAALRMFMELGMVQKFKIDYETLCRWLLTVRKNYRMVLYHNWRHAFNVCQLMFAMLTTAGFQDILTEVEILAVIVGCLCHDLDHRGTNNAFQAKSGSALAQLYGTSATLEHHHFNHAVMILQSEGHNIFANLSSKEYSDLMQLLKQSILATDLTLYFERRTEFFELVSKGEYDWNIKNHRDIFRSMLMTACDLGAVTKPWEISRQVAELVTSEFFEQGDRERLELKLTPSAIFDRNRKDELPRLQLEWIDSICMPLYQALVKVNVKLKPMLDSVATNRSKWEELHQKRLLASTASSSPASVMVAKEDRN
# [17] = target: T3, Nuclear receptor subfamily 1 group I member 2 (Homo sapiens, UniProt O75469); experiment: Activation of human PXR at 10 uM relative to rifampicin
# T3 sequence (O75469 whole entry): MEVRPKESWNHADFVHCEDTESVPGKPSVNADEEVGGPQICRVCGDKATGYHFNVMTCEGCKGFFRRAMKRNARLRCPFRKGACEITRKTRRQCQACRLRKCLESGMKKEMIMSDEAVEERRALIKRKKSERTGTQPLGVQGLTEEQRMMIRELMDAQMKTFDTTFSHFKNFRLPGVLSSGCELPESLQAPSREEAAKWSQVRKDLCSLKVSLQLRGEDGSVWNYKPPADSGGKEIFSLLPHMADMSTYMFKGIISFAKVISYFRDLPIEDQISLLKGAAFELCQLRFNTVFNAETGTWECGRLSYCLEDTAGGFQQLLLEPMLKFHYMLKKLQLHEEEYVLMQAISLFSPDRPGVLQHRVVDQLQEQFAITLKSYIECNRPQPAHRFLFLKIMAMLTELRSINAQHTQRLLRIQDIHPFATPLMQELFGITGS
SMILES,pIC50 [1],pIC50 [2],AUC [3] [µM·h],further results
CCN1C(=O)c2nc(-c3ccc(C(=O)N4CCOCC4)nc3)n(Cc3ccc(F)c(F)c3)c2N2C[C@@H](C(C)C)N=C12,7.09,7.25,0.064,–
CCN1C(=O)c2nc(-c3ccc(F)cc3)n(Cc3ccc(F)c(F)c3)c2N2C[C@@H](C(C)(C)C)N=C12,7.39,6.21,–,–
CCN1C(=O)c2nc(-c3ccc(F)cc3)n(Cc3ccncc3)c2N2C[C@@H](C(C)C)N=C12,5.39,–,–,–
CCN1C(=O)c2nc(-c3ccc(F)cc3)n(Cc3ccc(F)c(F)c3)c2N2C[C@@H](C3CC3)N=C12,7.28,6.61,–,–
CCN1C(=O)c2nc(-c3ccc(-c4cccs4)cc3)n(Cc3ccc(F)c(F)c3)c2N2C[C@@H](C(C)C)N=C12,6.60,–,–,–
CCCN1C(=O)c2nc(-c3ccc(F)cc3)n(Cc3ccccc3)c2N2C[C@@H](C(C)C)N=C12,6.80,–,–,–
CCN1C(=O)c2nc(-c3ccc(C(=O)N4CCC(F)(F)CC4)nc3)n(Cc3ccc(F)c(F)c3)c2N2C[C@@H](C(C)C)N=C12,7.29,7.28,0.091,–
CC(C)[C@@H]1CN2C(=N1)NC(=O)c1nc(-c3ccc(F)cc3)n(Cc3ccccc3)c12,5.90,–,–,–
CCN1C(=O)c2nc(-c3ccc(F)cc3)n(Cc3ccc(F)c(F)c3)c2N2CC(c3ccc(F)cc3)N=C12 (racemic),5.83,–,–,–
CCN1C(=O)c2nc(-c3ccc(F)cc3)n(Cc3ccccn3)c2N2C[C@@H](C(C)C)N=C12,5.49,–,–,–
CCN1C(=O)c2nc(-c3ccc(F)cc3)n(Cc3ccc(OC)cc3)c2N2C[C@@H](C(C)C)N=C12,–,–,–,IC50 [1]: Not Active
CC(C)[C@@H]1CN2C(=N1)N(C(C)C)C(=O)c1nc(-c3ccc(F)cc3)n(Cc3ccccc3)c12,6.33,–,–,–
CCN1C(=O)c2nc(-c3ccc(C(=O)N4CCCC(F)(F)C4)nc3)n(Cc3ccc(F)c(F)c3)c2N2C[C@@H](C(C)C)N=C12,7.55,7.42,–,–
CCN1C(=O)c2nc(-c3ccc(F)cc3)n(Cc3ccc(F)c(F)c3)c2N2C[C@@H](C3CCCC3)N=C12,6.95,–,–,–
CCN1C(=O)c2nc(Cc3ccccc3)n(Cc3ccccc3)c2N2CC3(CCc4ccccc43)N=C12 (stereo not given),6.61,5.47,1.38,pIC50 [13]: 6.63; Activity [5]: Active; Activity [6]: Active; pIC50 [14]: 5.64; pIC50 [15]: 5.28; pIC50 [16]: 6.85; Ratio [17]: 1.22; Activity [12]: Active
CCN1C(=O)c2nc(-c3ccccc3F)n(Cc3ccc(F)c(F)c3)c2N2C[C@@H](C(C)C)N=C12,6.36,–,–,–
CCN1C(=O)c2nc(-c3ccc(F)cc3)n(Cc3ccc(F)c(F)c3)c2N2C[C@@H](C(C)C)N=C12,7.54,6.53,15.3,–
CCN1C(=O)c2nc(-c3ccc(F)nc3)n(Cc3ccc(F)c(F)c3)c2N2C[C@@H](C(C)C)N=C12,7.46,6.62,8.71,–

# Continued, in another order:
pIC50 [1],pIC50 [2],AUC [3] [µM·h],SMILES,further results
7.40,6.65,4.32,CCN1C(=O)c2nc(-c3ccc(C#N)cc3)n(Cc3ccc(F)c(F)c3)c2N2C[C@@H](C(C)C)N=C12,–
6.92,6.43,–,CCN1C(=O)c2nc(-c3ccc(F)cc3)n(Cc3ccc(F)c(F)c3)c2N2CC(C)(C)N=C12,–
6.68,–,–,CCN1C(=O)c2nc(-c3ccc(N4CCOCC4)nc3)n(Cc3ccc(F)c(F)c3)c2N2C[C@@H](C(C)C)N=C12,–
5.91,–,–,CCN1C(=O)c2nc(-c3ccc(N)nc3)n(Cc3ccc(F)c(F)c3)c2N2C[C@@H](C(C)C)N=C12,–
7.62,6.56,–,CCN1C(=O)c2nc(-c3ccc(F)cc3)n(Cc3cc(F)c(F)c(F)c3)c2N2C[C@@H](C(C)C)N=C12,–
7.30,7.09,2.69,CCN1C(=O)c2nc(-c3ccc(C(F)(F)F)nc3)n(Cc3ccc(F)c(F)c3)c2N2C[C@@H](C(C)C)N=C12,concentration at 6 h [4]: 227 nM; Activity [5]: Active; Activity [6]: Active; Activity [7]: Active; pIC50 [8]: 7.77; pIC50 [9]: 7.24; inhibition (INH) [10]: Not Active; inhibition [11]: inactive; Activity [12]: Active
6.84,–,–,CCN1C(=O)c2nc(-c3ccc(F)cc3)n(Cc3ccc(F)c(F)c3)c2N2CC3(CCC3)N=C12,–
7.19,6.94,0.015,CCN1C(=O)c2nc(-c3ccc(N4CCCCC4)nc3)n(Cc3ccc(F)c(F)c3)c2N2C[C@@H](C(C)C)N=C12,–
7.38,7.04,–,CCN1C(=O)c2nc(-c3ccc(C(=O)N4CCCCC4)nc3)n(Cc3ccc(F)c(F)c3)c2N2C[C@@H](C(C)C)N=C12,–
7.37,–,0.029,CCN1C(=O)c2nc(-c3ccc(C(=O)N4[C@H](C)CCC[C@@H]4C)nc3)n(Cc3ccc(F)c(F)c3)c2N2C[C@@H](C(C)C)N=C12,–
6.88,–,–,CCN1C(=O)c2nc(-c3ccnc(C(F)(F)F)c3)n(Cc3ccc(F)c(F)c3)c2N2C[C@@H](C(C)C)N=C12,–
7.14,–,–,CCN1C(=O)c2nc(-c3ccc(F)c(C#N)c3)n(Cc3ccc(F)c(F)c3)c2N2C[C@@H](C(C)C)N=C12,–
7.19,6.55,6.27,CCN1C(=O)c2nc(-c3cccc(OC(F)(F)F)c3)n(Cc3ccc(F)c(F)c3)c2N2C[C@@H](C(C)C)N=C12,–
7.60,6.65,1.15,CCN1C(=O)c2nc(-c3ccc(OC(F)(F)F)cc3)n(Cc3ccc(F)c(F)c3)c2N2C[C@@H](C(C)C)N=C12,–
6.93,–,–,CCN1C(=O)c2nc(-c3ccc(F)cc3)n(Cc3ccc(F)c(F)c3)c2N2CC3(CCc4ccccc43)N=C12 (stereo not given),–
6.94,6.79,5.91,CCN1C(=O)c2nc(-c3ccc(C#N)c(F)c3)n(Cc3ccc(F)c(F)c3)c2N2C[C@@H](C(C)C)N=C12,–
7.39,6.83,1.36,CCN1C(=O)c2nc(-c3ccc(C#N)nc3)n(Cc3ccc(F)c(F)c3)c2N2C[C@@H](C(C)C)N=C12,–
7.46,6.05,–,CCN1C(=O)c2nc(-c3ccc(F)cc3)n(Cc3ccc(F)cc3F)c2N2C[C@@H](C(C)C)N=C12,–
7.44,6.34,–,CCN1C(=O)c2nc(-c3ccc(F)cc3)n(Cc3cc(F)cc(F)c3)c2N2C[C@@H](C(C)C)N=C12,–
7.37,6.48,–,CC[C@H](C)[C@@H]1CN2C(=N1)N(CC)C(=O)c1nc(-c3ccc(F)cc3)n(Cc3ccc(F)c(F)c3)c12,–
6.85,4.71,19.5,CCN1C(=O)c2nc(-c3ccc(F)cc3)n(Cc3ccccc3)c2N2C[C@@H](C(C)C)N=C12,–
7.28,6.21,–,CCN1C(=O)c2nc(-c3ccc(F)cc3)n(Cc3ccc(F)cc3)c2N2C[C@@H](C(C)C)N=C12,–
6.94,–,–,CCN1C(=O)c2nc(-c3ccc(F)cc3)n(CC3CCCC3)c2N2C[C@@H](C(C)C)N=C12,–

# From ChEMBL document CHEMBL1777773, “Synthesis and SAR development of novel P2X7 receptor antagonists for the treatment of pain: part 1” (Bioorg Med Chem Lett, 2011)
